Measurements as given in patent publication US20110086908A9, “USE OF PHOSPHATASE INHIBITORS FOR THE TREATMENT OF NEURODEGENERATIVE DISEASES” (priority 2007, published 2011).
Entries after “also recorded” stand apart in the source; their conditions may differ.

Key:
[1] = test system: hippocampal LTP in slices from arcAβ mice and wt littermates; test: Tautomycin bath application to acute hippocampal slices, LTP measurement (fEPSP recordings); format: cell-based, mouse; conditions: 1 nM tautomycin, at least 1 h before recording
[2] = molecular target: T1, recombinant PP1 (Oryctolagus cuniculus, UniProt P62139); test: PP1 activity assay (Biomol Green Assay-Kit); format: biochemical; conditions: 1 nM tautomycin
T1 construct: purchased NEB
Description: (§1) Activity of recombinant PP1 (NEB) and calcineurin (Biomol) was measured with and without 1 nM tautomycin using the Biomol Green Assay-Kit (Biomol) according to manufacturer's instruction.

[3] = molecular target: T2, calcineurin (Homo sapiens, UniProt Q08209); test: Phosphatase activity assay (Biomol Green Assay-Kit), calcineurin; format: biochemical; conditions: 1 nM tautomycin
T2 construct: purchased Biomol
Description: as §1

[4] = test system: hippocampal LTP in slices from wildtype, I-1* control and I-1* transgenic mice; test: Aβ-oligomers bath application to acute hippocampal slices, LTP measurement; format: cell-based, mouse

T1 sequence (P62139 whole entry): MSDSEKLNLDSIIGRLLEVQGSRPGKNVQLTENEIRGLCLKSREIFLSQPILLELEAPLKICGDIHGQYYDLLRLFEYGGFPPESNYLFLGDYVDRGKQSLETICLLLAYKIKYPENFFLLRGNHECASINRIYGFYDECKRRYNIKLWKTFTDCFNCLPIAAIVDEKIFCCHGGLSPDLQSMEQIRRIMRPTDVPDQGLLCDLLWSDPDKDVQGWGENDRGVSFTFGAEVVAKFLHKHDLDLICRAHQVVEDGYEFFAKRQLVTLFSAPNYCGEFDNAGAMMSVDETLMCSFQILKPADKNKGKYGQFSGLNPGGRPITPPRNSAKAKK
T2 sequence (P63098 2-170, other chains not shown): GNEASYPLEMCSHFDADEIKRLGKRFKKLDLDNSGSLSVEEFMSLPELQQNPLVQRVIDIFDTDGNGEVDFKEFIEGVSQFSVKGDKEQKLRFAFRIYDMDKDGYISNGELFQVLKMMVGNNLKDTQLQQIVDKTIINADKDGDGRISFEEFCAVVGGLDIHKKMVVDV

Row | Compound | effect on LTP deficit in slices from arcAβ (tg) mice (in words) ([1]; 3 months old arcAβ mice) | effect on LTP in slices from wt (non-transgenic) mice (in words) ([1]; wt littermates) | inhibition at 0.001 µM [2] [%] | inhibition of recombinant PP1 activity (in words) [2] | inhibition at 0.001 µM [3] [%] | inhibition of calcineurin activity (in words) [3] | effect on LTP in slices from I-1* control mice (in words) ([4]; Aβ-oligomers bath-applied at least 1 h, I-1* littermate controls) | effect on LTP in slices from I-1* transgenic (mutant) mice with reduced PP1 activity (in words) ([4]; Aβ-oligomers bath-applied at least 1 h, I-1* transgenic mice) | effect on LTP in slices from wildtype mice (in words) ([4]; Aβ-oligomers corresponding to 0.5 μM initial peptide, bath-applied at least 1 h)
1 | CO[C@H]([C@H](O)CC(=O)[C@@H](C)[C@@H](O)CC[C@@H](C)[C@@H]1O[C@]2(CC[C@@H](C)[C@H](CC[C@H](C)C(C)=O)O2)CC[C@@H]1C)[C@H](OC(=O)C[C@@H](O)C1=C(C)C(=O)OC1=O)C(C)C [tautomycin] | fully rescued the LTP deficit; also recorded: full rescue of LTP | has no effect | ~90 | specifically inhibits the activity of recombinant PP1 | < 10 | not calcineurin |  |  | 
2 | Aβ-oligomers: oligomers produced from synthetic Aβ 1-42 (Bachem) according to Klein |  |  |  |  |  |  | impair LTP; also recorded: Aβ-oligomers mediated LTP deficit | not in mutant mice; also recorded: failed to inhibit LTP | impair LTP; also recorded: LTP was inhibited
